According to ChEMBL document CHEMBL4000233, “Synthesis and evaluation of 5-(1H-indol-3-yl)-N-aryl-1,3,4-oxadiazol-2-amines as Bcl-2 inhibitory anticancer agents” (Bioorg Med Chem Lett, 2017):

Legend:
MDA-MB-231 = assay: Cytotoxicity against human MDA-MB-231 cells assessed as growth inhibition after 72 hrs by MTT assay; assay type: functional, cell-based; settings: MDA-MB-231, 72 h
HeLa = assay: Cytotoxicity against human HeLa cells assessed as growth inhibition after 72 hrs by MTT assay; assay type: functional, cell-based
Jurkat = assay: Cytotoxicity against human Jurkat cells assessed as growth inhibition after 24 hrs by CellTiter Blue assay; assay type: functional, cell-based
[1] = biological target: Apoptosis regulator Bcl-2 (Homo sapiens, UniProt P10415); assay: Inhibition of biotinylated Bim peptide binding to His-tagged Bcl-2 (unknown origin) preincubated for 1 hr followed by biotinylated Bim peptide addition measured after 2 hrs by ELISA
Sequence of Apoptosis regulator Bcl-2 (P10415 whole entry): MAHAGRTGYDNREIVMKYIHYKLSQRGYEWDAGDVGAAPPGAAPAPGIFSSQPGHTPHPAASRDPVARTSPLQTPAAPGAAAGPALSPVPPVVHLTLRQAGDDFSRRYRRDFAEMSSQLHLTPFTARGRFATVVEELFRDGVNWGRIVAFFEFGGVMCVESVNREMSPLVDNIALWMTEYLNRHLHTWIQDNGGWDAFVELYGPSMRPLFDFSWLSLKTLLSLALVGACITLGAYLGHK

KG-1a = assay: Cytotoxicity against human KG1a cells assessed as growth inhibition after 24 hrs by CellTiter Blue assay; assay type: functional, cell-based

SMILES	IC50 (MDA-MB-231) [µM]	IC50 (HeLa) [µM]	IC50 (Jurkat) [µM]	IC50 [1] [µM]	IC50 (KG-1a) [µM]
Cc1ccc(Nc2nnc(-c3c[nH]c4ccccc34)o2)cc1	27.2	15.8	> 100	21.1	4
O=[N+]([O-])c1ccc(Nc2nnc(-c3c[nH]c4ccccc34)o2)cc1	3.54	1.76	45	3.83	0.89
Clc1cccc(Nc2nnc(-c3c[nH]c4ccccc34)o2)c1	8.89	5.6	> 100	0.66	32.7
O=[N+]([O-])c1cccc(Nc2nnc(-c3c[nH]c4ccccc34)o2)c1	34.6	15.1	> 100		25.5
c1ccc(CNc2nnc(-c3c[nH]c4ccccc34)o2)cc1	6.47	7.81	> 100		> 100
COc1ccc(Nc2nnc(-c3c[nH]c4ccccc34)o2)cc1	10.1	5.82	> 100	29	0.82
Clc1ccc(Nc2nnc(-c3c[nH]c4ccccc34)o2)cc1	9.77	3.8	30.2		3.16
Fc1ccc(Nc2nnc(-c3c[nH]c4ccccc34)o2)cc1	> 100	> 100	> 100		21.1
Clc1ccc(Nc2nnc(-c3c[nH]c4ccccc34)o2)cc1Cl	31.1	19.3	> 100		45.3
O=[N+]([O-])c1ccccc1Nc1nnc(-c2c[nH]c3ccccc23)o1	0.9	0.3	30.2	1.24	0.85
